pEC50: −log10 of the molar value. Read-outs that look alike come from different tables or passages of the source. Starred links: 1 amine or outer side, 2 acyl side, 3 side chain; linkers in the order of their positions; H or OH if unused. Non-standard residues stand in square brackets, D forms with d. Residues, ends and D or L forms follow the SMILES beside them. *: point of attachment. X4 = Cc1cc(F)cc(-c2cnc(NCCNC(=O)CCOCCOCCOCCOCCC(=O)*)c(-c3nc4ccc(Cl)cc4[nH]3)c2N2CCC(N)CC2)c1; PABC(3-O-βDGlc) = O=C(OCc1ccc(N[*:1])c(O[C@@H]2O[C@H](CO)[C@@H](O)[C@H](O)[C@H]2O)c1)[*:2]; X1 = Cc1cc(F)cc(-c2cnc(NCCNC(=O)CCOCCC(=O)*)c(-c3nc4ccc(Cl)cc4[nH]3)c2N2CCC(N)CC2)c1; Dolaproine = CO[C@@H]([C@@H]1CCCN1)[C@@H](C)C(=O)O; Dil = CC[C@H](C)[C@H](NC)[C@@H](CC(=O)O)OC; PABC = O=C(OCc1ccc(N[*:1])cc1)[*:2]; X2 = C[C@@H](N*)[C@@H](O)c1ccccc1; Cit = NC(=O)NCCC[C@H](N)C(=O)O; NMeV = CN[C@H](C(=O)O)C(C)C
What was measured:
Format in all cases: cell-based
SST2 = target: T1, SST2 (Homo sapiens, UniProt P30874); assay: PathHunter CHO-K1 SST2 internalization assay; conditions: PathHunter CHO-K1 SST2, 90 min; for pEC50: read-out: Internalization EC50; for EC50: Internalization EC50 (nM)
T1 construct: host or cells: PathHunter CHO-K1 SST2 cells
T1 sequence (P30874 whole entry): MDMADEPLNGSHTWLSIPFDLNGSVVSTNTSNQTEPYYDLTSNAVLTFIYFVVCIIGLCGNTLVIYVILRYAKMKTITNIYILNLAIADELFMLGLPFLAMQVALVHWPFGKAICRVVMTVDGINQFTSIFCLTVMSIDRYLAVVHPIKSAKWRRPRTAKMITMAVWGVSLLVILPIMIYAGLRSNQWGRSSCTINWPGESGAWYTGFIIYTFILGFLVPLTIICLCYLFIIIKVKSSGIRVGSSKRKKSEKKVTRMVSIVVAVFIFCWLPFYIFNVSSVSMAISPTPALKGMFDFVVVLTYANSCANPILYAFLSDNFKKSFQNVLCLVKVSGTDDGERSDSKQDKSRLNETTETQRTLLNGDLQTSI
Method in brief: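 IC50 comes from four-parameter curves on background-corrected duplicates of Beta-Glo luminescence, read after 60 min at room temperature in the dark. Before that, CHO-K1 SST2 internalization cells (48 h post-seeding) received SMDC as eleven threefold dilutions, 10 uM highest final, for 90 min at 37 C.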

[1] = target: T2, human somatostatin receptor subtype 2 (Homo sapiens, UniProt P30874); assay: Functional cAMP assay for SSTR2 agonists (HTRF) in CHO-K1 cells; conditions: CHO-K1 cells stably expressing human SST2, 20 min; for pEC50: read-out: hSST2 cAMP Avg EC50; for EC50: hSST2 cAMP Avg EC50 (nM)
T2 construct: expressed in transfected cells
T2 sequence (P30874 whole entry): as above
Method in brief: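 Agonism scored as loss of NKH477 (1.6 μM)-driven cAMP, with IBMX present, after 20 min, 37° C. exposure of stably transfected CHO-K1 cells to compound dilutions (typically 0-10,000 nM). Lysates read by time-resolved FRET; cAMP interpolated from standard curve and EC50 derived.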

[2] = system: NCI-H524 (ATCC) human small cell lung cancer cells
Method in brief: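 CellTiter-Glo luminescence after a 2 h SMDC pulse (top dose 1 uM, 2-fold dilutions, 11 points), medium wash, then 70 h recovery. Cells were seeded at 5,000/well and dosed 24 h later. % inhibition vs control gave IC50 via four-parameter fit.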

[3] = 2 h treatment, washout, additional 70 h, read-out: H524 EC50

Row | SMILES | pEC50 (SST2) | pEC50 [1] | pEC50 ([2]; 2 h) | EC50 (SST2) | EC50 [1] | pEC50 [2, 3]
1 | CC[C@H](C)[C@@H]([C@@H](CC(=O)N1CCC[C@H]1[C@H](OC)[C@@H](C)C(=O)N[C@H](C)[C@@H](O)c1ccccc1)OC)N(C)C(=O)[C@@H](NC(=O)[C@H](C(C)C)N(C)C(=O)OCc1ccc(O[C@@H]2O[C@H](C(=O)O)[C@@H](O)[C@H](O)[C@H]2O)c(NC(=O)[C@H](C)NC(=O)[C@@H](NC(=O)CCOCCC(=O)NCCNc2ncc(-c3cc(C)cc(F)c3)c(N3CCC(N)CC3)c2-c2nc3ccc(Cl)cc3[nH]2)C(C)C)c1)C(C)C [Compound 148] | 8.35 | 10.07 | 8.10 |  |  | 
2 | COc1cc2cc(c1Cl)N(C)C(=O)CC(OC(=O)[C@@H](C)N(C)C(=O)CCSC1CC(=O)N(CC3CCC(C(=O)NCCNc4ncc(-c5cc(C)cc(F)c5)c(N5CCC(N)CC5)c4-c4nc5ccc(Cl)cc5[nH]4)CC3)C1=O)[C@]1(C)OC1[C@@H](C)C1C[C@@](O)(NC(=O)O1)[C@H](OC)/C=C/C=C(\C)C2 (stereo partly drawn) [Compound 6] | 8.28 | 9.66 | 7.93 |  |  | 
3 | COc1cc2cc(c1Cl)N(C)C(=O)CC(OC(=O)[C@@H](C)N(C)C(=O)CCSSCCC(=O)NCCNc1ncc(-c3cc(C)cc(F)c3)c(N3CCC(N)CC3)c1-c1nc3ccc(C(N)=O)cc3[nH]1)[C@]1(C)OC1[C@@H](C)C1C[C@@](O)(NC(=O)O1)[C@H](OC)/C=C/C=C(\C)C2 (stereo partly drawn) [Compound 23, (16E,18E)-11-chloro-21-hydroxy-12,20-dimethoxy-2,5,9,16-tetramethyl-8,23-dioxo-4,24-dioxa-9,22-diazatetracyclo[19.3.1.1^10,^14.0^3,^5]hexacosa-10,12,14(26),16,18-pentaen-6-yl 2-[3-({2-[(2-{[4-(4-aminopiperidin-1-yl)-3-(6-carbamoyl-1H-1,3-benzodiazol-2-yl)-5-(3-fluoro-5-methylphenyl)pyridin-2-yl]amino}ethyl)carbamoyl]ethyl}disulfanyl)-N-methylpropanamido]propanoate] | 6.61 | 9.18 | 6.88 |  |  | 
4 | CC[C@@H](C)[C@H]([C@H](CC(=O)N1CCC[C@@H]1[C@@H](OC)[C@H](C)C(=O)N[C@@H](C)[C@H](O)c1ccccc1)OC)N(C)C(=O)C(NC(=O)[C@@H](C(C)C)N(C)C(=O)OCc1ccc(NC(=O)[C@H](CCCNC(N)=O)NC(=O)[C@@H](NC(=O)CCOCCNC(=O)[C@H](CS(=O)(=O)O)NC(=O)CCOCCOCCOCCOCCC(=O)NCCNc2ncc(-c3cc(C)cc(F)c3)c(N3CCC(N)CC3)c2-c2nc3ccc(Cl)cc3[nH]2)C(C)C)cc1)C(C)C (stereo partly drawn) [Compound 44] | 7.76 | 10.05 | 6.99 |  |  | 
5 | CC[C@H](C)[C@@H]([C@@H](CC(=O)N1CCC[C@H]1[C@H](OC)[C@@H](C)C(=O)N[C@H](C)[C@@H](O)c1ccccc1)OC)N(C)C(=O)[C@@H](NC(=O)[C@H](C(C)C)N(C)C(=O)OCc1ccc(NC(=O)[C@H](C)NC(=O)[C@@H](NC(=O)[C@H](CCC(=O)O)NC(=O)CCOCCC(=O)NCCNc2ncc(-c3cc(C)cc(F)c3)c(N3CCC(N)CC3)c2-c2nc3ccc(Cl)cc3[nH]2)C(C)C)c(O[C@@H]2O[C@H](CO)[C@@H](O)[C@H](O)[C@H]2O)c1)C(C)C [Compound 67] (X1-EVA[PABC(3-O-βDGlc)][NMeV]V[Dil][Dolaproine]-X2) | 8.17 | 9.72 | 7.39 |  |  | 
6 | CC[C@H](C)[C@@H]([C@@H](CC(=O)N1CCC[C@H]1[C@H](OC)[C@@H](C)C(=O)N[C@H](C)[C@@H](O)c1ccccc1)OC)N(C)C(=O)[C@@H](NC(=O)[C@H](C(C)C)N(C)C(=O)OCc1ccc(NC(=O)[C@H](CCCNC(N)=O)NC(=O)[C@@H](NC(=O)CCCC(=O)N(C)CC(=O)N(C)CC(=O)N(C)CC(=O)NCCNc2ncc(-c3cc(C)cc(F)c3)c(N3CCC(N)CC3)c2-c2nc3ccc(Cl)cc3[nH]2)C(C)C)c(O[C@@H]2O[C@H](C(=O)O)[C@@H](O)[C@H](O)[C@H]2O)c1)C(C)C [Compound 142] | 8.36 | 9.60 | 7.04 |  |  | 
7 | CC[C@H](C)[C@@H]([C@@H](CC(=O)N1CCC[C@H]1[C@H](OC)[C@@H](C)C(=O)N[C@H](C)[C@@H](O)c1ccccc1)OC)N(C)C(=O)[C@@H](NC(=O)[C@H](C(C)C)N(C)C(=O)OCc1ccc(NC(=O)[C@H](CCCNC(N)=O)NC(=O)[C@@H](NC(=O)[C@H](CCC(=O)O)NC(=O)CCOCCOCCOCCOCCC(=O)NCCNc2ncc(-c3cc(C)cc(F)c3)c(N3CCC(N)CC3)c2-c2nc3ccc(Cl)cc3[nH]2)C(C)C)cc1C(=O)NCCN)C(C)C [Compound 47] | 8.05 | 10.04 | 7.73 |  |  | 
8 | CC[C@H](C)[C@@H]([C@@H](CC(=O)N1CCC[C@H]1[C@H](OC)[C@@H](C)C(=O)N[C@H](C)[C@@H](O)c1ccccc1)OC)N(C)C(=O)[C@@H](NC(=O)[C@H](C(C)C)N(C)C(=O)OCc1ccc(NC(=O)[C@H](C)NC(=O)[C@@H](NC(=O)CCOCCC(=O)N(C)CCNc2ncc(-c3cc(C)cc(F)c3)c(N3CCC(N)CC3)c2-c2nc3ccc(Cl)cc3[nH]2)C(C)C)c(O[C@@H]2O[C@H](C(=O)O)[C@@H](O)[C@H](O)[C@H]2O)c1)C(C)C [Compound 153] | 7.85 | 9.29 | 7.01 |  |  | 
9 | CC[C@@]1(O)C(=O)OCc2c1cc1n(c2=O)Cc2c-1nc1cc(F)c(C)c3c1c2[C@@H](NC(=O)OCc1ccc(NC(=O)[C@H](CCCNC(N)=O)NC(=O)[C@@H](NC(=O)[C@H](CCC(=O)O)NC(=O)CCOCCC(=O)NCCNc2ncc(-c4cc(C)cc(F)c4)c(N4CCC(N)CC4)c2-c2nc4ccc(Cl)cc4[nH]2)C(C)C)cc1)CC3 [Compound 71] |  |  |  | 1.6 nM | 0.29 nM | 6.57
10 | CC[C@H](C)[C@@H]([C@@H](CC(=O)N1CCC[C@H]1[C@H](OC)[C@@H](C)C(=O)N[C@H](C)[C@@H](O)c1ccccc1)OC)N(C)C(=O)[C@@H](NC(=O)[C@H](C(C)C)N(C)C(=O)OCc1ccc(NC(=O)[C@H](CCCNC(N)=O)NC(=O)[C@@H](NC(=O)[C@H](CCC(N)=O)NC(=O)[C@H](CCC(=O)O)NC(=O)CCOCCOCCOCCOCCC(=O)NCCNc2ncc(-c3cc(C)cc(F)c3)c(N3CCC(N)CC3)c2-c2nc3ccc(Cl)cc3[nH]2)C(C)C)cc1)C(C)C [Compound 119] (X4-EQV[Cit][PABC][NMeV]V[Dil][Dolaproine]-X2) | 8.27 | 9.85 | 7.80 |  |  | 
11 | CC[C@H](C)[C@@H]([C@@H](CC(=O)N1CCC[C@H]1[C@H](OC)[C@@H](C)C(=O)N[C@@H](Cc1ccccc1)C(=O)O)OC)N(C)C(=O)[C@@H](NC(=O)[C@H](C(C)C)N(C)C(=O)CCOCCOCCOCCOCCC(=O)NCCNc1ncc(-c2cc(C)cc(F)c2)c(N2CCC(N)CC2)c1-c1nc2ccc(Cl)cc2[nH]1)C(C)C [Compound 11] | 7.87 | 10.07 | 6.98 |  |  | 
12 | CC[C@@]1(O)C(=O)OCc2c1cc1n(c2=O)Cc2c-1nc1cc(F)c(C)c3c1c2[C@@H](NC(=O)OCc1ccc(NC(=O)[C@H](CCCNC(N)=O)NC(=O)[C@@H](NC(=O)CCOCCC(=O)NCCNc2ncc(-c4cc(C)cc(F)c4)c(N4CCC(N)CC4)c2-c2nc4ccc(Cl)cc4[nH]2)C(C)C)c(O[C@@H]2O[C@H](C(=O)O)[C@@H](O)[C@H](O)[C@H]2O)c1)CC3 [Compound 126] |  |  |  | 3.4 nM | 0.29 nM | 7.00

From patent US12134610B2, “Somatostatin subtype-2 receptor (SST2R) targeted therapeutics and uses thereof” (priority 2022, dated 2024)
